Laboratory results published in paper PMC10888192, “New Derivatives of 1-(3-Methyl-1-Benzofuran-2-yl)Ethan-1-one: Synthesis and Preliminary Studies of Biological Activity” (International Journal of Molecular Sciences, 2024).

Legend:
K562 cells [1] = experiment: Annexin V-FITC/PI apoptosis assay, flow cytometry; type: cell-based, human; conditions: Annexin V-FITC, IC50 concentration, 72 h
Text: ROS may play a different function in different stages of cancer. ROS might enhance cell growth and proliferation through the induction of various cell signaling pathways involving nuclear factor-kappa B (NF-κB) and STAT3, hypoxia-inducible factor 1α (HIF1α), kinases, growth factors, cytokines and many other proteins. On the other hand, the accumulation of ROS can induce cell damage and promote apoptosis. It has also been confirmed that elevated ROS concentration may cause mitochondrial membrane depolarization and facilitate increased cellular pro-apoptotic molecules releasing. […] As has been previously reported, lead compound 1,1′-[3-(bromomethyl)-5,6-dimethoxy-1-benzofuran-2,7-diyl] induces apoptosis in human leukemia cells. […] We used the Annexin V-FITC test, which allows us to detect the early structural changes in cellular membrane which occur during apoptosis. […] In the control sample almost 94% of cells were neither apoptotic nor necrotic. […] As has been previously written, the MTT test assesses the toxicity of tested compounds based on the activity of mitochondrial enzymes. […] In order to estimate the effect of K562 exposure on the tested compounds as well as to confirm apoptotic properties of new benzofurans, we analyzed the effect of the compounds caspases 3 and 7 activities. […]

[2] = tested on: SW620 cells (human metastatic colon cancer); experiment: MTT cytotoxicity assay, SW620; type: cell-based; conditions: SW-620, 72 h incubation, mean ± SD
Experimental: The cell viability was analyzed at the following six concentrations of compounds: 5, 10, 20, 40, 60 and 100 µM after 72 h incubation.
Additionally, to determine the safety profile of the tested compounds, the therapeutic index (TI) (the ratio of IC50 value in HaCaT to cancer cells K562) was calculated. […] The goal of conducting the MTT assay in this research was to select benzofuran derivatives, which manage to reduce viability of cancer cells while exposing mild effects on normal healthy cells.
The cytotoxicity was evaluated by MTT reduction assay, which measures mitochondrial respiratory function. The test was performed based on the method described by Präbst et al.. Cells (1 × 10^4/well), in logarithmic phase, were seeded into 96-well plates in appropriate medium. After 24 h, cells were exposed to test compounds. […] After 72 h, the medium with the compounds was completely removed and MTT solution (0.5 mg/mL) in fresh medium without serum was added to each well. Plates with cells were incubated for 4 h at 37 °C in the dark. Then, MTT solution was removed and replenished with 0.1 mL DMSO: isopropanol (1:1) mixture to dissolve the generated formazan crystals. The optical density was measured with a […] GO (ThermoScientific) microplate reader at 570 nm. Replicates of three wells for each dosage, including vehicle control, were analyzed for each experiment. The experiments were conducted in triplicate. Control cells which were only treated with respective medium were used as the 100% viability value. […] Additionally, to determine the safety profile of the test compounds, therapeutic indexes (TI) (the ratio of IC50 values in HaCat to cancer cells (K562, PC3, SW620, Cack-1)) were calculated.

K562 cells [3] = experiment: Trypan blue exclusion assay, K562; type: cell-based, human; conditions: 72 h; for Cell Number (×10^6): K562, trypan blue, IC50 concentration
Experimental: (§1) The MTT assay assesses the viable cell number based on mitochondrial enzyme activity. […] In the next step of our studies, we analyzed the total cell number and viability after exposure to the selected compounds at IC50 concentration using trypan blue exclusion assay. K562 cells were incubated with tested compounds over 72 h. […] To assess the antiproliferative properties of newly synthesized derivatives, we analyzed the total cell number. […] The parallel experiment was conducted with HaCaT cells. […] The trypan blue test rapidly assesses cell viability indirectly from cell membrane integrity, but some publications have indicated weaknesses of this viability test. […] On the other hand, cell membrane integrity may be affected even while the cell might still be able to repair itself and become fully viable.
(§2) To evaluate the antiproliferative effects of the novel benzofurans derivatives the trypan blue exclusion assay was performed. Cells (HaCat, and K562) were seeded into 12-well plates (2 × 10^4 cells/well). After 24 h, cells were exposed to the tested compounds at concentrations of their respective IC50 and incubated for 72h. Then, cells were harvested and centrifugated (500× g, 5min). After centrifugation supernatant was removed and cell sediment was dissolved in 0.2 mL of PBS. Next, 10 µL of cells solution was mixed with 10 µL of trypan blue dye. Cells were counted by automatic cell counter (Countessa). Data obtained were expressed as the mean ± SD and the mean percentage of viable cells was calculated from three independent experiments performed in triplicate.

[4] = tested on: caspases 3 and 7 in K562 cells; experiment: Caspase-Glo 3/7 assay; type: cell-based, human; conditions: IC50 concentration; for Effect on activity of caspases 3 and 7: 4 h incubation
Text: ROS may play a different function in different stages of cancer. ROS might enhance cell growth and proliferation through the induction of various cell signaling pathways involving nuclear factor-kappa B (NF-κB) and STAT3, hypoxia-inducible factor 1α (HIF1α), kinases, growth factors, cytokines and many other proteins. On the other hand, the accumulation of ROS can induce cell damage and promote apoptosis. It has also been confirmed that elevated ROS concentration may cause mitochondrial membrane depolarization and facilitate increased cellular pro-apoptotic molecules releasing. […] As has been previously reported, lead compound 1,1′-[3-(bromomethyl)-5,6-dimethoxy-1-benzofuran-2,7-diyl] induces apoptosis in human leukemia cells. […] We used the Annexin V-FITC test, which allows us to detect the early structural changes in cellular membrane which occur during apoptosis. […] In the control sample almost 94% of cells were neither apoptotic nor necrotic. […] As has been previously written, the MTT test assesses the toxicity of tested compounds based on the activity of mitochondrial enzymes. […] Our results are in agreement with studies conducted by Liu et al. and Su et al. They report that the benzofuran derivatives ACDB and BL-038 induce apoptosis of human chandrosarcoma cells through ROS generation, mitochondria and endoplasmic reticulum dysfunction. BL-038 increases ROS production and dysregulates mitochondria membrane potential. This causes cytochrome C to be released from mitochondria and caspase activation. Similar effects have been observed for 2-amino-3-(2-chlorophenyl)-6-(4-dimethylaminophenyl) benzofuran-4-yl acetate (ACDB). It is well documented that disruption of the mitochondrial membrane as a result of, for example, the action of free radicals causes the release of cytochrome C. In the next step, cytochrome C binds to Apaf-1 (apoptotic protease activating factor 1) and it becomes the main component of apoptosome. The binding of cytochrome C with Apaf-1 is a critical step in apoptosome formation because it is responsible for the induction of intrinsic cell death pathway triggered by caspase activation. The observed increased concentration of hydrogen peroxide in cells exposed to both tested compounds might be a key factor for the molecular mechanism of apoptosis. Hydrogen peroxide can affect the redox state of cytochrome C. In addition to the effect of hydrogen peroxide on the iron atom in the cytochrome, it can also affect the activation of caspases. In order to estimate the effect of K562 exposure on the tested compounds as well as to confirm apoptotic properties of new benzofurans, we analyzed the effect of the compounds caspases 3 and 7 activities. […] We observed significant changes of activity after 48 h exposure. […] The caspase cascade responsible for executing cell death following cytochrome C release is well documented. Available research indicates, first of all, the key role of caspases 3 and 7 as mediators in the apoptosis through the intrinsic (mitochondrial) cell death pathway. […] They have shown that caspase 9 is responsible for mitochondrial morphological changes and ROS production by cleaving and activating Bid into tBid. Following caspase 9 activation, caspase 3 […] ROS generation and is essential for the efficient execution of apoptosis, whereas effector caspase 7 is needed for apoptotic cell detachment. […]
The induction of cell apoptosis was also analyzed by luminescent assay with the Caspases-Glo3/7 assay system (Promega). […]

HaCaT cells = experiment: Trypan blue exclusion assay, HaCaT; type: cell-based, human; conditions: IC50 concentration, 72 h
Experimental: as §1
as §2, with “Then, cells were harvested and centrifugated (500× g, 5min). After centrifugation supernatant was removed and cell sediment was dissolved in 0.2 mL of PBS. Next, 10 µL of cells solution was mixed with 10 µL of trypan blue dye.” left out

Question: For `CCOc1cccc2oc(C(C)=O)c(CBr)c12` [Compound 8, 1-[3-(Bromomethyl)-4-Ethoxy-1-Benzofuran-2-yl]Ethanone], which “Apoptosis (early and late stages), share of K562 cells” value (K562 cells [1]) is on record?
Answer: Its value is 60.1%.

Question: What about the IC50 [2] of the same compound?
Answer: Its IC50 is over 100 µM.

Question: And the “Cell Number (×10^6)” value (K562 cells [3])?
Answer: Its value is 0.83 ± 0.12 ×10^6.

Question: And the “Effect on activity of caspases 3 and 7” value [4]?
Answer: The value was “did not affect the activity of caspases 3 and 7”.

Question: What about the “Increase of activity of caspases 3 and 7” value ([4]; 12 h exposure) of the same compound?
Answer: The value was 27%.

Question: What about the “Increase of activity of caspases 3 and 7” value ([4]; 48 h exposure) of the same compound?
Answer: The value was 13%.

Question: What about the “Cell Number (×10^6)” value (HaCaT cells) of the same compound?
Answer: Its value is 2.00 ± 0.42 ×10^6.

Question: `COc1cc(OC)c2c(CBr)c(C(C)=O)oc2c1` [Compound 6, 1-[3-(Bromomethyl)-4,6-Dimethoxy-1-Benzofuran-2-yl]Ethanone] was tested. Which “Apoptosis (early and late stages), share of K562 cells” value (K562 cells [1]) did it give?
Answer: The value was 21.6%.

Question: And the IC50 [2]?
Answer: The IC50 was over 100 µM.

Question: And the “Reduction of total cell number” value (K562 cells [3]; K562, IC50 concentration, compared to control)?
Answer: Its value is 13%.

Question: And the “Cell Number (×10^6)” value (K562 cells [3])?
Answer: Its value is 0.62 ± 0.12 ×10^6.

Question: And the “Effect on activity of caspases 3 and 7” value [4]?
Answer: Its value is “did not affect the activity of caspases 3 and 7”.

Question: And the “Increase of activity of caspases 3 and 7” value ([4]; 12 h exposure)?
Answer: The value was 26%.

Question: And the “Cell Number (×10^6)” value (HaCaT cells)?
Answer: The value was 2.45 ± 1.63 ×10^6.
